# Patent US20090259275A1, “METHODS OF TREATING BRAIN DAMAGES” (priority 2008, published 2009)
# Entries after “also recorded” stand apart in the source; their conditions may differ.
# Key:
# [1] = tested on: association of p-PAK1 with TIAM1; assay: Coimmunoprecipitation of p-PAK1 with TIAM1 in EF-exposed LGE explants; format: cell-based, rat; settings: DAPV
# Description: (§1) The methods for immunocytochemistry and coimmunoprecipitation have been described in detail in Ning et al., “Dual neuroprotective signaling mediated by downregulating two distinct phosphatase activities of PTEN,” J. Neurosci., 24, 4052-60, (2004); and Liu et al., “Ischemic insults direct glutamate receptor subunit 2-lacking AMPA receptors to synaptic sites,” J. Neurosci., 26, 5309-19 (2006), both of which are incorporated herein by reference. For immunocytochemical labeling, the guinea-pig anti-DCX (obtained from Santa Cruz Biotechnology, Santa Cruz, Calif.), mouse anti-nestin (obtained from Chemicon, Billerica, Mass.), rabbit anti-NR1 (obtained from Chemicon), and rabbit anti-NR2B (obtained from Novas Biologicals, Littleton, Colo.) primary antibodies were used. Secondary antibodies consisted of Alex Fluor 488 and 596 were purchased from Molecular Probes, Eugene, Oreg. Imaging was performed with a Zeiss LSM 510 META confocal microscope and image processing was performed with Image J software (obtained from NIH). For coimmunoprecipitation assay, rabbit anti-TIAM1 (obtained from Santa Cruz), rabbit anti-NR2B (obtained from Novus Biologicals), rabbit anti-phosphorylated PAK1 at serine 423 (obtained from Santa Cruz) and mouse anti-actin (obtained from Chemicon) were used. […]
# [2] = target: T1, NMDAR association with TIAM1 (Rattus norvegicus, UniProt Q00960); assay: Coimmunoprecipitation of NMDAR (NR2B) with TIAM1 in EF-exposed LGE explants; format: cell-based; settings: DAPV 10 μM, EF 250 mV/mm for 60 minutes
# T1 construct: from tissue; host or cells: rat (Wistar) E17-18 lateral ganglionic eminence explant cultures
# T1 sequence (Q00960 27-1482, other chains not shown): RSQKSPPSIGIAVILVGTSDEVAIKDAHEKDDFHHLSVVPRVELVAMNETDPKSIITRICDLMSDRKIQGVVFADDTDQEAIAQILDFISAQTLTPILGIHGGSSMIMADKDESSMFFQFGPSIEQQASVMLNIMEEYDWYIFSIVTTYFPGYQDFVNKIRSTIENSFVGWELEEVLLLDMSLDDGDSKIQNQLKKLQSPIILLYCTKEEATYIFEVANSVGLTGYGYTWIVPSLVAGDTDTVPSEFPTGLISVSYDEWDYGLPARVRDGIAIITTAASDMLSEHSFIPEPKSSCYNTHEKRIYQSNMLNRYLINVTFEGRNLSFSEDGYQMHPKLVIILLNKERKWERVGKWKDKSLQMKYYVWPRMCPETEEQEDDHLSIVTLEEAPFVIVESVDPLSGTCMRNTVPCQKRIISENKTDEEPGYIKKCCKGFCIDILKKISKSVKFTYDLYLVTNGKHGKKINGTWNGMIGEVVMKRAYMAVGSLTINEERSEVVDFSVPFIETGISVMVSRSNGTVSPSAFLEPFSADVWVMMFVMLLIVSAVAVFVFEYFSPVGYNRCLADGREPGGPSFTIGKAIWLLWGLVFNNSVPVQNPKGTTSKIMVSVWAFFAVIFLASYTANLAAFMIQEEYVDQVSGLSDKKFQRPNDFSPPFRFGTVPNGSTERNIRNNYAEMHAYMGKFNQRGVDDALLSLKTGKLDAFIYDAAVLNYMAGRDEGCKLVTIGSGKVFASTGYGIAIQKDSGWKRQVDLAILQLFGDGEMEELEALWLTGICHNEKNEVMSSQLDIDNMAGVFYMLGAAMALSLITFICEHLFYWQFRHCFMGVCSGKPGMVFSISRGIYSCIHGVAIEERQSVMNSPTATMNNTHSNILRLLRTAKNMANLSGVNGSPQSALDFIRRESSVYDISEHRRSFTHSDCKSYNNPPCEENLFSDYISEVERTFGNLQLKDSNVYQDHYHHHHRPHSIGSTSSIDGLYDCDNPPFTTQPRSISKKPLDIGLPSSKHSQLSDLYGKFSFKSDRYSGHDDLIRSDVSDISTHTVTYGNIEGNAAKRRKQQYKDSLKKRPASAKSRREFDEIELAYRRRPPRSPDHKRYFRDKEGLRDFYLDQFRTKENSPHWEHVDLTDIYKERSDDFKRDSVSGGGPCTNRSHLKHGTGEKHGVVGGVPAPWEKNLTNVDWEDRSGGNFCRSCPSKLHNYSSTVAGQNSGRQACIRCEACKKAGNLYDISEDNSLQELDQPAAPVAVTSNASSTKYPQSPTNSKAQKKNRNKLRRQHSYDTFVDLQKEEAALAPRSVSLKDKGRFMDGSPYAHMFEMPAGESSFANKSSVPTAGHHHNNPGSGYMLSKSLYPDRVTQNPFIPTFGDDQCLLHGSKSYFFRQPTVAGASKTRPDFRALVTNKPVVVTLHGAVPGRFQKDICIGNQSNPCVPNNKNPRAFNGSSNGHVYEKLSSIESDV
# Description: The methods for immunocytochemistry and coimmunoprecipitation have been described in detail in Ning et al., “Dual neuroprotective signaling mediated by downregulating two distinct phosphatase activities of PTEN,” J. Neurosci., 24, 4052-60, (2004); and Liu et al., “Ischemic insults direct glutamate receptor subunit 2-lacking AMPA receptors to synaptic sites,” J. Neurosci., 26, 5309-19 (2006), both of which are incorporated herein by reference. For immunocytochemical labeling, the guinea-pig anti-DCX (obtained from Santa Cruz Biotechnology, Santa Cruz, Calif.), mouse anti-nestin (obtained from Chemicon, Billerica, Mass.), rabbit anti-NR1 (obtained from Chemicon), and rabbit anti-NR2B (obtained from Novas Biologicals, Littleton, Colo.) primary antibodies were used. Secondary antibodies consisted of Alex Fluor 488 and 596 were purchased from Molecular Probes, Eugene, Oreg. Imaging was performed with a Zeiss LSM 510 META confocal microscope and image processing was performed with Image J software (obtained from NIH). For coimmunoprecipitation assay, rabbit anti-TIAM1 (obtained from Santa Cruz), rabbit anti-NR2B (obtained from Novus Biologicals), rabbit anti-phosphorylated PAK1 at serine 423 (obtained from Santa Cruz) and mouse anti-actin (obtained from Chemicon) were used.
# Rearrangement of the actin cytoskeletal network is an essential process in neural migration. […]
# [3] = tested on: association between actin and TIAM1; assay: Coimmunoprecipitation of actin with TIAM1 in EF-exposed explants; format: cell-based, rat; settings: DAPV
# Description: as §1
# [4] = tested on: NSPC migration toward cathode; assay: EF-directed NSPC migration in LGE explant cultures; format: cell-based, rat; settings: DAPV 10 μM, EF 30 mV/mm for 10 hours
# Experimental: Explants (100-300 μm in diameter) were selected for observation. For the electric field (EF) application, agar-salt bridges were used to connect silver/silver chloride electrodes in beakers containing Steinberg's solution to pools of excess culture medium at either side of the chamber. The electric field strengths were measured directly at the beginning and end of the observation period. For time-lapse observation, HEPES acid (25 mM) was added to the culture medium to adjust pH to 7.4. Time-lapse imaging was performed with an inverted microscope (Zeiss Axiovert 200M, obtained from Zeiss, Oberkochen, Germany) that was used to record digitally the migration of NSPCs for 3 hours. […] At the end of exposure period explants were fixed in 4% paraformaldehyde and then digitally photographed for quantification. […] To quantify velocity and directedness of cell motion, the cell centroid was calculated with Image J software (obtained from NIH). […] The directedness of motion was expressed as a function of cosine. It was calculated by defining movements in the X-plane towards the cathode (or mock-cathode) as negative. […] For quantification of long-term EF-exposed cells, the symmetry was expressed as a function of the distribution of cells around the explant. Total cell numbers in the cathode and anode facing quadrants were calculated. […]
# PAK1 phosphorylation = assay: Immunoblot of PAK1 phosphorylation (serine 423) in EF-exposed explants; format: cell-based, rat; settings: DAPV; EF 250 mV/mm for 60 min
# Description: as §1
smiles,measurement,setting,value
N[C@H](CCCP(=O)(O)O)C(=O)O [DAPV],EF-enhanced association of p-PAK1 with TIAM1,[1],abolished
same,EF-induced increase of NMDAR (NR2B) association with TIAM1,[2],inhibited; also recorded: suppressed
same,EF-induced increase of association between actin and TIAM1,[3],suppressed; also recorded: inhibited
same,NSPC migration toward cathode on the cathode side of explants,[4],significantly inhibited; also recorded: significantly attenuated
same,EF-mediated increase of PAK1 phosphorylation,PAK1 phosphorylation,significantly attenuated; also recorded: blocked
